# Assay results: patent publication US12440531B2, “Composition for use in improving endothelial function by enhancing flow mediated dilation” (SOCIETE DES PRODUITS NESTLE S.A., priority 2019, dated 2025)
# Columns and labels:
# human vascular function = conditions: pure 5-CQA at 450 mg and 900 mg, 24 subjects; cited from earlier work
# L. johnsonii esterase = assay: Substrate specificity with 4-nitrophenyl derivatives; type: biochemical, Lactobacillus johnsonii; conditions: substrate 0.2 mM, sodium phosphate buffer pH 6.0, 37° C., 10 min, absorbance 410 nm
# Description: The substrate specificity of L. johnsonii esterase was studied using different 4-nitrophenyl derivatives. […] The reactions were carried out in sodium phosphate buffer pH 6.0 at 37° C. for 10 min. The substrates were used at concentration of 0.2 mM and enzyme at 0.01 U/mg substrate. The measures were monitored each 30 seconds. The absorbance was set at 410 nm.
smiles,measurement,setting,value
"O=C(/C=C/c1ccc(O)c(O)c1)O[C@@H]1C[C@](O)(C(=O)O)C[C@@H](O)[C@H]1O [Dose 5-CQA, 5-CQA]",effect on human vascular function,human vascular function,did not show a significant effect
CCCCCCCCCCCC(=O)Oc1ccc([N+](=O)[O-])cc1 [4-nitrophenyl dodecanoate],transformation as substrate of L. johnsonii esterase,L. johnsonii esterase,no transformation
CCCC(=O)Oc1ccc([N+](=O)[O-])cc1 [4-nitrophenyl butyrate],transformation as substrate of L. johnsonii esterase,L. johnsonii esterase,best substrate
